From ChEMBL document CHEMBL1909046, “DrugMatrix in vitro pharmacology data” come the findings set out here.

Assay [1] deals with T1, Cysteinyl leukotriene receptor 1 (Homo sapiens, UniProt Q9Y271).
T1 sequence (Q9Y271 whole entry): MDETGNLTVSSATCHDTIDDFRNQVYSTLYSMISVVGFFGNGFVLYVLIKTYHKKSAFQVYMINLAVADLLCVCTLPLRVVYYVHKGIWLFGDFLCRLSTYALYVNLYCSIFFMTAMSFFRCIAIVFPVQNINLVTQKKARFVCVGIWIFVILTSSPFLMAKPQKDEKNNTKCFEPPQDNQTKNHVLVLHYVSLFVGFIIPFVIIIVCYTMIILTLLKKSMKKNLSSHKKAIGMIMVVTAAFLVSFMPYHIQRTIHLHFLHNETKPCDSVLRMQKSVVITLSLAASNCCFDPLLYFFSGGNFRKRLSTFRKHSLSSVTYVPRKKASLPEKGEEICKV
It is filed as cell membranes, CHO-K1, Membrane. Conditions: cho-k1.

The target in assay [2] is T2, Vasoactive intestinal polypeptide receptor 1 (Homo sapiens, UniProt P32241). Also: in other assays of this panel Not Active means under 50% inhibition at 10 µM.
T2 sequence (P32241 whole entry): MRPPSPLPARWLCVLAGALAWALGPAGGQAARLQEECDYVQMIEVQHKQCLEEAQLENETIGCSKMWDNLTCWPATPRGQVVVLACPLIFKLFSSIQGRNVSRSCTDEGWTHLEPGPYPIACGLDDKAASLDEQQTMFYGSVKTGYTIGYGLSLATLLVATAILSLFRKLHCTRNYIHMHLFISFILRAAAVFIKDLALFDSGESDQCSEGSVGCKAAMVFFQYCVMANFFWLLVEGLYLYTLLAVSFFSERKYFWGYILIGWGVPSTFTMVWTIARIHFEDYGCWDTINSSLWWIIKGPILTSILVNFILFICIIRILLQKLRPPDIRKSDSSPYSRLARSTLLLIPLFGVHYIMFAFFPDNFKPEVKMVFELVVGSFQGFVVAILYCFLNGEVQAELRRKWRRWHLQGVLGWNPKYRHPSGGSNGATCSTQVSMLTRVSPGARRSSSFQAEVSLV
It is filed as cell membranes, Membrane. The settings on record: ht-29.

Assay [3] concerns the target Beta-3 adrenergic receptor (Homo sapiens, UniProt P13945). The experiment in a line: DRUGMATRIX: Adrenergic beta3 radioligand binding (ligand: [125I] Cyanopindolol). Type of assay: cell membranes, Membrane. Conditions: hek293; Not Active = under 50% inhibition at 10 µM.
Assay [4] can be described thus: DRUGMATRIX: ATPase, Na+/K+ enzyme inhibition (substrate: ATP). It is filed as tissue-based, Sus scrofa, Heart. Conditions: Not Active = under 50% inhibition at 10 µM.
A short description of assay [5]: DRUGMATRIX: Atrial Natriuretic Factor (ANF) radioligand binding (ligand: [125I] ANF (rat)). It is filed as cell membranes, Cavia porcellus, Dunkin-Hartley, Adrenal gland, Membrane. The settings on record: Not Active = under 50% inhibition at 10 µM.
For assay [6], the target named is T3, Receptor-type tyrosine-protein phosphatase C (Homo sapiens, UniProt P08575).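 Also: inhibition of CD45 enzyme activity measured using DiFMUP as substrate; in other assays of this panel Not Active means under 50% inhibition at 10 µM.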
T3 sequence (P08575 whole entry): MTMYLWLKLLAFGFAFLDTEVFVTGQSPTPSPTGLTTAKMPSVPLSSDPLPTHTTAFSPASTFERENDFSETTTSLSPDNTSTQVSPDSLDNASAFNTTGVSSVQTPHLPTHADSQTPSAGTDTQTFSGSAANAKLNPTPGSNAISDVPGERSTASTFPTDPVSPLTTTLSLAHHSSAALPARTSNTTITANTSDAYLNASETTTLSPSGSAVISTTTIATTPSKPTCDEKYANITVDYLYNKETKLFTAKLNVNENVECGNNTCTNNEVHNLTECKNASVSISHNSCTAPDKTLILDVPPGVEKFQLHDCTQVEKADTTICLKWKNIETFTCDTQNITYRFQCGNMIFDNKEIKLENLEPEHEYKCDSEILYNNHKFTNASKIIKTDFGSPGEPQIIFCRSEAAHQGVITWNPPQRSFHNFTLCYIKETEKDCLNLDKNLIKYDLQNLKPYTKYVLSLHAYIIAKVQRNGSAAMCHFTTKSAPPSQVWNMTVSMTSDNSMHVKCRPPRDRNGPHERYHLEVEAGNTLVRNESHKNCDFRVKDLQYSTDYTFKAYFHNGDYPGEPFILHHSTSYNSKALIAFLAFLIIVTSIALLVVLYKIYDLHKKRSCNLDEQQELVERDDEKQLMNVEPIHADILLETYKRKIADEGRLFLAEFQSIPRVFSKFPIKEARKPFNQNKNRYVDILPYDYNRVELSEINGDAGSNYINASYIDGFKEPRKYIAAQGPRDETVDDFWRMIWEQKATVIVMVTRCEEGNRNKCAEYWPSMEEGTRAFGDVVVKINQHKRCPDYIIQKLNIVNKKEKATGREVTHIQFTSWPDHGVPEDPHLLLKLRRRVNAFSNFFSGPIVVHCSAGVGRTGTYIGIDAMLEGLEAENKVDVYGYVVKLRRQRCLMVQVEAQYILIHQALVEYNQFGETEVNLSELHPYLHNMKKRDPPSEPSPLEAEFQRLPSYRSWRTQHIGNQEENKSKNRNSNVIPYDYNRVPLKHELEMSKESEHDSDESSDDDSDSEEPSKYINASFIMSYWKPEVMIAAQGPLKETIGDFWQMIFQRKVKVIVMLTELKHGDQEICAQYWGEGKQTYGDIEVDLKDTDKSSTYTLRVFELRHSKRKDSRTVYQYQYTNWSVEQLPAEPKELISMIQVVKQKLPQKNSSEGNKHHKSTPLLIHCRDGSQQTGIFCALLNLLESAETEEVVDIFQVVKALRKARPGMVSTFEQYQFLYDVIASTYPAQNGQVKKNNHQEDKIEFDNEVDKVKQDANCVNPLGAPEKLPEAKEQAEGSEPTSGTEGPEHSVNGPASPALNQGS
The arrangement: species or system Escherichia coli.

Assay [7] can be described thus: DRUGMATRIX: Calcium Channel Type L, Phenylalkylamine radioligand binding (ligand: [3H] (-)-Desmethoxyverapamil (D-888)). It is filed as cell membranes, Rattus norvegicus, Wistar, Brain, Membrane. The settings on record: Not Active = under 50% inhibition at 10 µM.
A short description of assay [8]: DRUGMATRIX: Glutamate, Kainate radioligand binding (ligand: [3H] Kainic acid). It is filed as cell membranes, Rattus norvegicus, Wistar, Brain, Membrane. Conditions: Not Active = under 50% inhibition at 10 µM.
The target of a further assay is T4, Substance-K receptor (Homo sapiens, UniProt P21452). Also: in other assays of this panel Not Active means under 50% inhibition at 10 µM.
T4 sequence (P21452 whole entry): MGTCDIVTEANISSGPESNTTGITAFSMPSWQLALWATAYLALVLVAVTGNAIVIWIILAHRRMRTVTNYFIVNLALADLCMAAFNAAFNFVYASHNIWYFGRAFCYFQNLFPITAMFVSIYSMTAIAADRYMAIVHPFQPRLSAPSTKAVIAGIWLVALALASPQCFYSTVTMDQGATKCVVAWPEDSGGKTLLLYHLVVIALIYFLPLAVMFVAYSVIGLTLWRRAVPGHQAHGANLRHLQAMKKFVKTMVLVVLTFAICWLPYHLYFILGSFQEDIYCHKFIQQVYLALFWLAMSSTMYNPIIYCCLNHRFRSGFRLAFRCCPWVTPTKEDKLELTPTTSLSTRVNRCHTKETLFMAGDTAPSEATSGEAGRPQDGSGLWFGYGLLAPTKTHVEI
It is filed as cell membranes, CHO, Membrane.

Chain of Beta-3 adrenergic receptor (P13945 whole entry): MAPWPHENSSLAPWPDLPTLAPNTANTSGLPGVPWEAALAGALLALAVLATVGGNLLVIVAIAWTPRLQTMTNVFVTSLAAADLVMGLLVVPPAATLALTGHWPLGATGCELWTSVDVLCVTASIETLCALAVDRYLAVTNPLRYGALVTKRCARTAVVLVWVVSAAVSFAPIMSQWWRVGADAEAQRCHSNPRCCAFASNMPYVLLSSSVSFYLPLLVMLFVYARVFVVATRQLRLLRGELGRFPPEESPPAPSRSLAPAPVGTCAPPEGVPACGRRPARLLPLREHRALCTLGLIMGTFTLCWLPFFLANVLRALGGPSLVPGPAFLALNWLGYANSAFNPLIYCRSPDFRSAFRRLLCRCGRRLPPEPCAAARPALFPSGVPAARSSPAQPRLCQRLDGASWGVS

`CN1C(C(=O)Nc2ccccn2)=C(O)c2sccc2S1(=O)=O` [TENOXICAM]: the IC50 result in assay [1], in [2], in assay [3], in assay [4], in assay [5] and in assay [6] was “Not Active” in each case. For the same compound, the IC50 entry (in [7]; in [8]; against Substance-K receptor (cho)) was “Not Active” in each case. Further, the Ki result in assay [4], in [5], in assay [7] and in assay [8] was “Not Active” each time.

Consider `CC(C)(C)c1ccc(C(O)CCCN2CCC(C(O)(c3ccccc3)c3ccccc3)CC2)cc1` (stereo not drawn) [TERFENADINE], for which the IC50 entry in assay [1], in assay [2], in [3], in assay [4], in assay [5] and in assay [6] was “Not Active” throughout. In addition, the IC50 (usually the point on the concentration scale where inhibition reaches its midpoint) is 624 nM in [7] (read-out: IC50), “Not Active” in assay [8] and 2680 nM on Substance-K receptor (read-out: IC50). Further, the Ki – broadly, the equilibrium dissociation constant of an inhibitor or competing ligand from its target – in [4] is “Not Active”; in assay [5], “Not Active”; in [7] (read-out: Ki), 607 nM; in assay [8], “Not Active”; at Substance-K receptor (read-out: Ki), 892 nM.

For the compound `O=C1CCC(N2C(=O)c3ccccc3C2=O)C(=O)N1` (stereo not drawn) [THALIDOMIDE], the IC50 entry in [1], in assay [2], in assay [3], in assay [4], in assay [5] and in assay [6] was “Not Active” each time. In addition, the IC50 result (in [7]; in assay [8]; against Substance-K receptor (cho)) was “Not Active” in each case. The Ki entry in assay [4], in assay [5], in assay [7] and in assay [8] was “Not Active” throughout.

As to `Cc1cccc(Nc2ccncc2S(=O)(=O)NC(=O)NC(C)C)c1` [TORSEMIDE], the IC50 entry in [1], in [2], in assay [3], in [4], in assay [5] and in assay [6] was “Not Active” throughout. The IC50 entry (in assay [7]; in [8]; against Substance-K receptor (cho)) was “Not Active” in each case. In addition, the Ki entry in assay [4], in [5], in [7] and in assay [8] was “Not Active” each time.

As for `CC(C)C[C@H](NC(=O)[C@@H](O)[C@H](N)Cc1ccccc1)C(=O)O` [UBENIMEX], the IC50 result in assay [1], in assay [2], in assay [3], in assay [4], in [5] and in assay [6] was “Not Active” in each case. Also, the IC50 result (in [7]; in [8]; against Substance-K receptor (cho)) was “Not Active” each time. For the same compound, the Ki entry in assay [4], in assay [5], in assay [7] and in assay [8] was “Not Active” each time.

In the case of `Cc1onc(-c2ccccc2)c1-c1ccc(S(N)(=O)=O)cc1` [VALDECOXIB], the IC50 entry in assay [1], in assay [2], in assay [3], in assay [4], in [5] and in [6] was “Not Active” in each case. For the same compound, the IC50 entry (in [7]; in assay [8]; at Substance-K receptor (cho)) was “Not Active” in each case. The Ki entry in assay [4], in [5], in assay [7] and in assay [8] was “Not Active” in each case.

As for `CC[C@]1(O)C[C@@H]2CN(CCc3c([nH]c4ccccc34)[C@@](C(=O)OC)(c3cc4c(cc3OC)N(C)[C@H]3[C@@](O)(C(=O)OC)[C@H](OC(C)=O)[C@]5(CC)C=CCN6CC[C@]43[C@@H]65)C2)C1` [VINBLASTINE], the IC50 entry in [1], in assay [2], in assay [3], in assay [4], in [5] and in assay [6] was “Not Active” each time. In addition, the IC50 result (in [7]; in assay [8]; against Substance-K receptor (cho)) was “Not Active” each time. Besides, the Ki result in assay [4], in assay [5], in assay [7] and in [8] was “Not Active” each time.

As to `CC(=O)CC(c1ccccc1)c1c(O)c2ccccc2oc1=O` (stereo not drawn) [WARFARIN], the IC50 entry in assay [1], in assay [2], in [3], in [4], in assay [5] and in assay [6] was “Not Active” throughout. Moreover, the IC50 entry (in assay [7]; in assay [8]; against Substance-K receptor (cho)) was “Not Active” each time. Further, the Ki result in assay [4], in assay [5], in assay [7] and in assay [8] was “Not Active” each time.

For `C[C@@H](N)[C@H]1CC[C@H](C(=O)Nc2ccncc2)CC1` [Y-27632], the IC50 result in assay [1], in [2], in assay [3], in assay [4], in assay [5] and in assay [6] was “Not Active” throughout. Besides, the IC50 result (in assay [7]; in assay [8]; against Substance-K receptor (cho)) was “Not Active” in each case. Moreover, the Ki entry in assay [4], in assay [5], in assay [7] and in [8] was “Not Active” throughout.
